From the Kinase Knowledgebase extract (Sharma et al. 2016)
pIC50, pKi: −log10 of the molar value.

What was measured:
Assay in all cases: Enzyme Assay
[1] = target: PIK3CD (Human) (UniProt O00329)
[2] = target: PIK3CA (human) (UniProt P42336)
[3] = target: PIK3CG (human) (UniProt P48736)
[4] = target: PIK3CB (Human) (UniProt P42338)
PIK3CB (Human), sequence (P42338 whole entry, looked up): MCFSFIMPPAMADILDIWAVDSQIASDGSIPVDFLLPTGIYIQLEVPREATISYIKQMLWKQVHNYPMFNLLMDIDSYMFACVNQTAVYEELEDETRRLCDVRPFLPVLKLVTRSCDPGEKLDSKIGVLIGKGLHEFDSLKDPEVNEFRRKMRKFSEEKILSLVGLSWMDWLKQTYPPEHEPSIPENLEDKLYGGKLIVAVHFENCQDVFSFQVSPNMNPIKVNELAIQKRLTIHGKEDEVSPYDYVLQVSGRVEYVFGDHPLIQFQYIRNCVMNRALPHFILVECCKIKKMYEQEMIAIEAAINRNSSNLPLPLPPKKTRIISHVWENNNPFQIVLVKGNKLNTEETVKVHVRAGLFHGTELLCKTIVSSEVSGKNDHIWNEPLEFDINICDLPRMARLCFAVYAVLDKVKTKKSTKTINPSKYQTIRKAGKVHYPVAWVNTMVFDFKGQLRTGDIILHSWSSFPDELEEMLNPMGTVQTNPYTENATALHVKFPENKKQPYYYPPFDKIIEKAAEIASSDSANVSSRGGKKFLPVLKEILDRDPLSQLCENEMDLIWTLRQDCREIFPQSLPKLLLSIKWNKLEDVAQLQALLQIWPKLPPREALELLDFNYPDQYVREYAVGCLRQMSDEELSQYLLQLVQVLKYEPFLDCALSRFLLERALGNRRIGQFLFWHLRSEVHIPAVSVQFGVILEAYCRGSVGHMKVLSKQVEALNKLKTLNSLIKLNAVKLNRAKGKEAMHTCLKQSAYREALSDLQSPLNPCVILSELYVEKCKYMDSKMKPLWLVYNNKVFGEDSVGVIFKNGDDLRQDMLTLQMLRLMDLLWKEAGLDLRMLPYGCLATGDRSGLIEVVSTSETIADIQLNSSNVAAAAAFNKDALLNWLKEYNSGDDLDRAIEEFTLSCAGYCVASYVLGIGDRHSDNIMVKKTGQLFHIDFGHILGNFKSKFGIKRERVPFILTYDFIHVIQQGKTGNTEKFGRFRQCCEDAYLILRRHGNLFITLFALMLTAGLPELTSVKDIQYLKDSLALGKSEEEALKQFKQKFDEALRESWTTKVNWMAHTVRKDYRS

PIK3CA (human), sequence (P42336 whole entry, looked up): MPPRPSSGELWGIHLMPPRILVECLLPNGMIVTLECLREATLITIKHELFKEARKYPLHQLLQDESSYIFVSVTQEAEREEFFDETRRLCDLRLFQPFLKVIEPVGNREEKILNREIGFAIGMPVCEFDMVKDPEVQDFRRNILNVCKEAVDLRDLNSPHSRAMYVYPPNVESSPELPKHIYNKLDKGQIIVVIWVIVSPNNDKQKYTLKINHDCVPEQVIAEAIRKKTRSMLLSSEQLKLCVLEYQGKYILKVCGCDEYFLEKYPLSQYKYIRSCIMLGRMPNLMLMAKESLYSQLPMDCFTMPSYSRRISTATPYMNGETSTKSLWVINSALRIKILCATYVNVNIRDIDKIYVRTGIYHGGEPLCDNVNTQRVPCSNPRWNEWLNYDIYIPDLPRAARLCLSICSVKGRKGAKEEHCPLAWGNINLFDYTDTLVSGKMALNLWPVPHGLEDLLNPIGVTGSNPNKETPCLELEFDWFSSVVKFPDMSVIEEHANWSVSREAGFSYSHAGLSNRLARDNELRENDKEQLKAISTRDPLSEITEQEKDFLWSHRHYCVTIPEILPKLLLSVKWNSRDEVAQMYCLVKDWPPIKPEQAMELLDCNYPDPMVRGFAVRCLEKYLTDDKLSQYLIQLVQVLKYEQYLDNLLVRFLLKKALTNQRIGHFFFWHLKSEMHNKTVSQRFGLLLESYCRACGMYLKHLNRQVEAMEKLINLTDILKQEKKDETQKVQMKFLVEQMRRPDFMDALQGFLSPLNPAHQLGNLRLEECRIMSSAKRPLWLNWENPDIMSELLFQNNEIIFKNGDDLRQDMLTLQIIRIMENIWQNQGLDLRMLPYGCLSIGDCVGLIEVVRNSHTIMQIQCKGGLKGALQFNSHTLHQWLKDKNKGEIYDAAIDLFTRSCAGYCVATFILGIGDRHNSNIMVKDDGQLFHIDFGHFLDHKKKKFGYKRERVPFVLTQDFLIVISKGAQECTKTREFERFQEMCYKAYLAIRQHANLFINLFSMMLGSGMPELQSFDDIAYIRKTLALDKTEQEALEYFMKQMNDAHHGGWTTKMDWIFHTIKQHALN
PIK3CD (Human), sequence (O00329 whole entry, looked up): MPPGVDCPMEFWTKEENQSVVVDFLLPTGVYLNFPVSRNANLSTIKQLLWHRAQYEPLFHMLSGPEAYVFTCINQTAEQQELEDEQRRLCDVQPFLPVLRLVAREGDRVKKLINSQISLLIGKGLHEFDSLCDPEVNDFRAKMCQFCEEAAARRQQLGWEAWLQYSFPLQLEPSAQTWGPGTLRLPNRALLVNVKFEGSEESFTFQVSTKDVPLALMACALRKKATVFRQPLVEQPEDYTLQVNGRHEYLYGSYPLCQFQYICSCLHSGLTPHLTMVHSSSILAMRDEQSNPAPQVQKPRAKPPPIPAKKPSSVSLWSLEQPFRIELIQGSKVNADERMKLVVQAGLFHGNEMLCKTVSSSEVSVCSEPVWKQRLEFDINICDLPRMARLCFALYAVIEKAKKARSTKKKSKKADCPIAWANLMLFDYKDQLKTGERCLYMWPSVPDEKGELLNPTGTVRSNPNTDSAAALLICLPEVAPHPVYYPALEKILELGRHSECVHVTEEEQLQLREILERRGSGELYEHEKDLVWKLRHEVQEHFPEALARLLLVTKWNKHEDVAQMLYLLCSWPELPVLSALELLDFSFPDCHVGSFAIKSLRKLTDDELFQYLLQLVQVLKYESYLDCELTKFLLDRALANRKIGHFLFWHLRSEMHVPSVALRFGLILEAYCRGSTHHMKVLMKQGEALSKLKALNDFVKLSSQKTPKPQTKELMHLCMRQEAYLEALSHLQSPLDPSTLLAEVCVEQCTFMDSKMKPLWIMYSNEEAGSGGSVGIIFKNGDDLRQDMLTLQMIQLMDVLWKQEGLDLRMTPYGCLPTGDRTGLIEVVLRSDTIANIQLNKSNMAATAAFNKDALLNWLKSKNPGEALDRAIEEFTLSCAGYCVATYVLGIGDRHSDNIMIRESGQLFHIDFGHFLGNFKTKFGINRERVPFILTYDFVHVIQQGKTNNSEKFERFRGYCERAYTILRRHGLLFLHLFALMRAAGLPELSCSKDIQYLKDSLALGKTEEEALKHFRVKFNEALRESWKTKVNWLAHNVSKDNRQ
PIK3CG (human), sequence (P48736 whole entry, looked up): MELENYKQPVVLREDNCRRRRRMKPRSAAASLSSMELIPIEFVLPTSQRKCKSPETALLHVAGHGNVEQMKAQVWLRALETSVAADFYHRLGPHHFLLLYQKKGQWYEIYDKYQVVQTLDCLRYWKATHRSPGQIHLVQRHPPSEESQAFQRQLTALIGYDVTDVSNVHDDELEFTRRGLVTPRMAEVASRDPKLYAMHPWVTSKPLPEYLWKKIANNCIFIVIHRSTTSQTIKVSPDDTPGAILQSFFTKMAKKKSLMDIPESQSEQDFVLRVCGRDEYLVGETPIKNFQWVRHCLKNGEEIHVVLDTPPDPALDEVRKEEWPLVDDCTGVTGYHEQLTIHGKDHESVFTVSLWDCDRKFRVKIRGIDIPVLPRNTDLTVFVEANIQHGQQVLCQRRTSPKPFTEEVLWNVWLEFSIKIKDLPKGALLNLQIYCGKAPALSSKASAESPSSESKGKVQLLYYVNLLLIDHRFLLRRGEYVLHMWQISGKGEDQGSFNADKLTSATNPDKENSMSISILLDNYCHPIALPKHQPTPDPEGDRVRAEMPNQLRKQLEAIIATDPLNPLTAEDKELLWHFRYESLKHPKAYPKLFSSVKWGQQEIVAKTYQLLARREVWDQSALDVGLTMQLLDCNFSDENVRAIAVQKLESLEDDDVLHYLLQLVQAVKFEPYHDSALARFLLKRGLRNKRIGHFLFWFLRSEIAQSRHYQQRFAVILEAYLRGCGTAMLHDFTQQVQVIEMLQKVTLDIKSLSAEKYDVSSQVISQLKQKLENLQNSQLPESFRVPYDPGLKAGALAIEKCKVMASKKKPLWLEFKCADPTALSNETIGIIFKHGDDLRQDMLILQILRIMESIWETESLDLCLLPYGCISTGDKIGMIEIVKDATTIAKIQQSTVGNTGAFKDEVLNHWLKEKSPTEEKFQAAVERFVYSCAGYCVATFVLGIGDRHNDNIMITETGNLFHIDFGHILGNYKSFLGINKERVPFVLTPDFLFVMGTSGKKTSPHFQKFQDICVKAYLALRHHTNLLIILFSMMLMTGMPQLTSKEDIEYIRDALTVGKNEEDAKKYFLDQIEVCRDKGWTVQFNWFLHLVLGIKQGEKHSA

| SMILES | pIC50 [1] | pIC50 [2] | further results |
| --- | --- | --- | --- |
| CCOC(=O)c1ccc(-c2csc3c(=O)cc(N4CCOCC4)oc23)cc1 | 7.92 |  |  |
| CN(C)CCN(C)C(=O)c1ccc(NC(=O)Nc2ccc(-c3nc(N4CCOCC4)c4ccn(CC(F)(F)F)c4n3)cc2)cc1 |  | 8.62 |  |
| CC(C)c1nc2ccccc2n1-c1nc(N2CCOCC2)c2nc(OC3CN(C4CCS(=O)(=O)CC4)C3)n(C)c2n1 |  |  | pKi [1]: 9.40 |
| Cc1c(Cl)cccc1Cn1c(SCC(=O)O)nc(=O)c2sc(N3CCOCC3)nc21 | 8.52 |  |  |
| CC1(C)CC(=O)c2sc(N3CCOc4ccccc43)nc2C1 | 6.08 |  | pIC50 [3]: 6.21 |
| CS(=O)(=O)N1CCN(Cc2cc3nc(-c4cnc(N)nc4)nc(N4CCOCC4)c3s2)CC1 | 7.80 |  | pIC50 [4]: 7.92 |
| O=C(c1ccccc1)c1ccc(N2CCOCC2)cc1O |  |  | pIC50 [4]: 5.43 |
| N#Cc1c(N2CCOCC2)sc(-c2nc[nH]n2)c1-c1ccc(Cl)cc1Cl |  | 9.46 |  |
| Cc1c(OCCN2CCN(C)CC2)ccc2c(=O)nc(N3CCOCC3)oc12 |  | ≤ 4.00 |  |
| CN(C)CCCNC(=O)c1cn2cc(-c3cccc4[nH]ncc34)nc(N3CCOCC3)c2n1 |  | 7.46 |  |
